Entries after “also recorded” stand apart in the source; their conditions may differ. Where two headings read alike, the source gives them in different places.

In series [1] the target is T1, human butyrylcholinesterase (hBuChE) (Homo sapiens, UniProt P06276).
T1 construct: from human plasma was from Vivonics (Bedford, MA, USA); purchased Vivonics (Bedford, MA, USA); host or cells: human plasma
Put plainly: biochemical. As to conditions: means±SEM of at least three experiments.

Series [2] has as its target T2, human serotonin 5-HT1A receptor (Homo sapiens, UniProt P08908).
T2 construct: host or cells: CHO-K1
Put plainly: cAMP 5-HT1A functional assay. Format: cell-based.
Description: Functional assays for 5-HT1A receptor
Tested and reference compounds were dissolved in DMSO to the concentration of 10 mM.
Dilutions were prepared in a 96-well microplate in assay buffers. For 5-HT1A receptors,
adenylyl cyclase activity was determined using cryopreserved CHO-K1 cells expressing the
The final concentration of DMSO in the test solutions was
The functional assay was performed with the CHO-K1 cells with expression of the 5-HT1A
The cells were cultured under selective conditions (400 μg/mL Geneticin G418)
(PerkinElmer). Thawed cells were resuspended in stimulation buffer (HBSS, 5 mM HEPES,
The same volume (10 μL) of cell
suspension was added to tested compounds with 10 μM forskolin. Samples were loaded onto
a white opaque half-area 96-well microplate. Cell stimulation was performed for 40 min at
room temperature. After incubation, cAMP measurements were performed with homogeneous
time-resolved fluorescence resonance energy transfer (TR-FRET) immunoassay using the
LANCE Ultra cAMP kit (PerkinElmer, USA). Ten microliters of EucAMP Tracer Working
Solution and 10 μL of ULight-anti-cAMP Tracer Working Solution were added, mixed, and
incubated for 1 h. The TR-FRET signal was read on an EnVision microplate reader
(PerkinElmer, USA). Emax values were defined as the ligand response expressed as a […]
which 50% of its maximal response was measured.

In series [3] the target is T3, human serotonin 5-HT7 receptor (Homo sapiens, UniProt P34969).
T3 construct: host or cells: CHO-K1 (with CRE-bla reporter)
Put plainly: cAMP 5-HT7 functional assay. Format: cell-based.
Description: Functional assays for 5-HT7 receptor
Test and reference compounds were dissolved in dimethyl sulfoxide (DMSO) at a
concentration of 10 mM. Serial dilutions were prepared in a 96-well microplate in assay
buffer, and 8 to 10 concentrations were tested. For the 5-HT7, adenylyl cyclase activity was
The functional assay was performed on cells expressing the human 5-
CHO-K1 cells were transfected with a beta-
lactamase (bla) reporter gene under the control of the cyclic AMP response element (CRE)
(Life Technologies). Thawed cells were resuspended in stimulation buffer (HBSS, 5 mM
HEPES, 0.5 IBMX, and 0.1% BSA at pH 7.4) at 2x10^5 cells/ml for 5-HT7 receptor. The same
volume (10 μl) of cell suspension was added to tested compounds for the 5 -HT7 receptor.
Samples were loaded onto a white opaque half-area 96-well microplate. The antagonist
The agonist and antagonist were added simultaneously. Cell stimulation was
performed for 1 h at room temperature. After incubation, cAMP measurements were
performed with homogeneous TR-FRET immunoassay using the LANCE Ultra cAMP kit
(PerkinElmer, USA). The volume of 10 μl of EucAMP Tracer Working Solution and 10 μl of
ULight-anti-cAMP Tracer Working Solution were added, mixed, and incubated for 1 h.
TR-FRET signal was read on an EnVision microplate reader (PerkinElmer, USA). IC50 and
EC50 were determined by nonlinear regression analysis using GraphPad Prism 9.0 software.

Series [4] has as its target T4, human serotonin 5-HT6 receptor (Homo sapiens, UniProt P50406).
T4 construct: host or cells: 1321N1
Briefly: cAMP 5-HT6 functional assay. Format: cell-based.
Description: Functional assays for 5-HT6 receptor
Test compounds were dissolved in dimethyl sulfoxide (DMSO) at a concentration of 10 mM.
Serial dilutions were prepared in a 96-well microplate in assay buffer, and 8 concentrations
were tested. For the 5-HT6, adenylyl cyclase activity was monitored using cryopreserved
cells were resuspended in stimulation buffer (HBSS, 5 mM HEPES, 0.5 IBMX, and 0.1%
BSA at pH 7.4) at 2x10^5 cells/ml. The same volume (10 μl) of cell suspension was added to
the tested compounds. Samples were loaded onto a white opaque half-area 96-well
reference agonist for the 5-HT6 receptor. The agonist and antagonist were added
simultaneously. Cell stimulation was performed for 30 minutes at room temperature. After
incubation, cAMP measurements were performed with homogeneous TR-FRET immunoassay
using the LANCE Ultra cAMP kit (PerkinElmer, USA). The volume of 10 μl of EucAMP
Tracer Working Solution and 10 μl of ULight-anti-cAMP Tracer Working Solution were
added, mixed, and incubated for 1 h. The TR-FRET signal was read on an EnVision
microplate reader (PerkinElmer, USA). IC 50 and EC 50 were determined by nonlinear
regression analysis using GraphPad Prism 9.0 software.

The target of series [5] is serotonin transporter (SERT) (Homo sapiens, UniProt P31645). Put plainly: Interaction with serotonin transporter.
Series [6] deals with mouse microglial cells SIM-A9. Put plainly: MTT cell viability assay, SIM-A9. Format: cell-based. As to conditions: Mus musculus, SIM-A9, 24 h; read-out: IC50 (MTT) ± SEM. An excerpt: Human neuroblastoma cells SH-SY5Y and mouse microglial cells SIM-A9 were used to evaluate cell viability, intracellular RONS, and malondialdehyde (MDA; CAS No. 542–78-9).
SH-SY5y cells were cultivated in Dulbecco's modified Eagle's medium (DMEM; Biosera, Nuaille, France) supplemented with 10% fetal bovine serum (Biosera) and 1% penicillin-streptomycin antibiotic solution (Sigma-Aldrich, St. Louis, MO, USA). The culture medium for SIM-A9 cells was further supplemented with donor horse serum (Biosera). The cells were incubated at 37 °C in a CO2 incubator (BINDER CO2 incubator CB 160, Tuttlingen, Germany) and routinely passaged by trypsinization at 75 –85% confluence.
Colorimetric Cell Viability Assay
The toxicological indices IC 50 used in the present study were measured utilizing 3-(4,5-dimethylthiazol-2-yl)-2,5-diphenyl-tetrazolium bromide (MTT) reduction assay after (1 picture or pasted object on this page, not shown here)
24 h incubation with tested compounds. […]
incubation, the cultivation medium containing serially diluted substances was aspirated and replaced with a fresh medium containing MTT at a concentration of 0.5 mg/mL and subsequently incubated at 37 °C for 1 h. […] Cell viability was assessed spectrophotometrically by the amount of formazan produced. Absorbance was measured at 570 nm with 650 nm reference wavelength on Spark (Tecan Group Ltd, Switzerland). […]

The subject of a further series is SIM-A9 cells. Briefly: Intracellular RONS, DCFH-DA probe, SIM-A9. Format: cell-based, mouse.
The next series has as its system ICR-CD1 mice. Put plainly: Dose safety verification after oral (i.g.) administration. Format: in vivo. As to conditions: 10 mg/kg i.g. How it is done:
phosphatase (ALP), amylase, and lactate dehydrogenase (LDH) were measured in the accredited biochemical laboratory of the Department of Clinical Biochemistry and Diagnostics, University Hospital, Hradec Kralove, Czech Republic. Statistical data analysis was performed through IBM SPSS Statistics version 26 (IBM, Armonk, NY, USA) using the Kolmogorov-Smirnov and Shapiro-Wilk tests to test data normality. Due to normally distributed data, the Student´s t-test was used to assess the differences compared with the control group (p ≤ 0.05).
Samples of the liver and kidney were used for standard histopathological examination. Organs were fixed with 10% neutral buffered formalin (Bamed s.r.o., Ceske Budejovice, Czech Republic), histologically processed, and stained with hematoxylin and eosin (both Merck) according to Pejchal et al.[41] The histopathological changes were evaluated using a BX-51 microscope (Olympus, Tokyo, Japan).
Dose safety verification after oral administration
Mice were randomly assigned to the experimental groups of two males and two females per one selected dose (10 mg/kg) of 6 to verify its safety. 6 was administered by a probe (i.g., 0.1 mL/10 g of animal weight; 1% Tween 80). Treated animals were intensively observed for signs of toxicity; then, the animals were subjected to macroscopic examination. The blood was collected for biochemical analysis of glucose, urea, and creatinine concentration and the activity of alanine transaminase (ALT), aspartate transaminase (AST), gamma-glutamyl transferase (GGT), alkaline phosphatase (ALP), amylase, and creatine kinase (CK). Selected organs (terminal esophagus, stomach, duodenum, pancreas, kidney, and liver) were collected for histopathologic examination. […]

T4 sequence (P50406 whole entry): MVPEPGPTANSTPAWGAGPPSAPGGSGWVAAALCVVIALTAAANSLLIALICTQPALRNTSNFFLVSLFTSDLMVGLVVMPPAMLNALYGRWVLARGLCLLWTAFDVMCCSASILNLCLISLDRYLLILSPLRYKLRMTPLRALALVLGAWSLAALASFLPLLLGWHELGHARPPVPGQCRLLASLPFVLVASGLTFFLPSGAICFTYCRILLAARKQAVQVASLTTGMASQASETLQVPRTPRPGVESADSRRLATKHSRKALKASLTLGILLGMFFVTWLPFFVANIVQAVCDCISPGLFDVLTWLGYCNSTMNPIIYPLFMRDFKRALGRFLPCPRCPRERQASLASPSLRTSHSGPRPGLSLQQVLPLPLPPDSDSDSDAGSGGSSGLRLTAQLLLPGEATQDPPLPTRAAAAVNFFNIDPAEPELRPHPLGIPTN
T2 sequence (P08908 whole entry): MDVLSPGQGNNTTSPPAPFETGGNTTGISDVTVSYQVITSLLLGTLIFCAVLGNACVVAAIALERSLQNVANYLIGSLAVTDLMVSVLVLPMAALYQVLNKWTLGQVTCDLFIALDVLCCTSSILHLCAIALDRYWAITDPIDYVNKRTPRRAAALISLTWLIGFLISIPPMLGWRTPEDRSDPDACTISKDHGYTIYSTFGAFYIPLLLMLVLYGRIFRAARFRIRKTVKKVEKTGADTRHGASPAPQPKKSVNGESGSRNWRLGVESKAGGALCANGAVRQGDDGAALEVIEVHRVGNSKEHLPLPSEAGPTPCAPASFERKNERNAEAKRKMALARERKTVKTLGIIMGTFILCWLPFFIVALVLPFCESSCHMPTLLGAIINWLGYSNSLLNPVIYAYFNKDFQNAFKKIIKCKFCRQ
T3 sequence (P34969 whole entry): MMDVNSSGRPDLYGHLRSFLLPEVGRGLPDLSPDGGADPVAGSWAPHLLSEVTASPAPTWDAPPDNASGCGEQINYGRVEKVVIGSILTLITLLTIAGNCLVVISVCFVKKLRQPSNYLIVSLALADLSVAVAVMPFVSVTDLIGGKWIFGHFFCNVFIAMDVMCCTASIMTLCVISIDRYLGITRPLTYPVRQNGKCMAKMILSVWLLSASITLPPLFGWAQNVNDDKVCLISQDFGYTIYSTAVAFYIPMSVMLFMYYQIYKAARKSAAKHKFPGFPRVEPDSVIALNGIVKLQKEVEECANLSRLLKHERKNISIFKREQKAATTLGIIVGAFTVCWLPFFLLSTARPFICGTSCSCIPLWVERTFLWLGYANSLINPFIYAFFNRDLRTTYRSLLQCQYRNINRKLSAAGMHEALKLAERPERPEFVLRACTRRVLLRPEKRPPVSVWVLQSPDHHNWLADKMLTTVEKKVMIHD
serotonin transporter (SERT), sequence (P31645 whole entry, species assumed): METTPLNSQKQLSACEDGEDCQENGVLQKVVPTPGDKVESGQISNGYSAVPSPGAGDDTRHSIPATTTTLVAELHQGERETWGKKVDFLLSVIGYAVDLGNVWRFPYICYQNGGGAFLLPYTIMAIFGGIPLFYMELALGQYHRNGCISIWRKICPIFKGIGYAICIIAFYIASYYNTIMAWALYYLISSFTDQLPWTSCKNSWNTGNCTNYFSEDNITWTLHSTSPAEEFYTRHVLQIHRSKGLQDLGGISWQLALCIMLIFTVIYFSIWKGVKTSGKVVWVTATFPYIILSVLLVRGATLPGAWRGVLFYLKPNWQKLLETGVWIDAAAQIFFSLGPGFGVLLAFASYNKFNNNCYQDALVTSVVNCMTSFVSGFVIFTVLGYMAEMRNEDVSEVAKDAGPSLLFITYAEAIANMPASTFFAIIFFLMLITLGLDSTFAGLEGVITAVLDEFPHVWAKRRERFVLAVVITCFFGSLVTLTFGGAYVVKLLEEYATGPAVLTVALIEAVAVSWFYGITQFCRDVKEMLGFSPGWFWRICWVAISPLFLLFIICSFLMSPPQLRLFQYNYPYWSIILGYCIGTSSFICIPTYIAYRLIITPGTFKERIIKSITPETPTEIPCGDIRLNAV
T1 sequence (P06276 29-602): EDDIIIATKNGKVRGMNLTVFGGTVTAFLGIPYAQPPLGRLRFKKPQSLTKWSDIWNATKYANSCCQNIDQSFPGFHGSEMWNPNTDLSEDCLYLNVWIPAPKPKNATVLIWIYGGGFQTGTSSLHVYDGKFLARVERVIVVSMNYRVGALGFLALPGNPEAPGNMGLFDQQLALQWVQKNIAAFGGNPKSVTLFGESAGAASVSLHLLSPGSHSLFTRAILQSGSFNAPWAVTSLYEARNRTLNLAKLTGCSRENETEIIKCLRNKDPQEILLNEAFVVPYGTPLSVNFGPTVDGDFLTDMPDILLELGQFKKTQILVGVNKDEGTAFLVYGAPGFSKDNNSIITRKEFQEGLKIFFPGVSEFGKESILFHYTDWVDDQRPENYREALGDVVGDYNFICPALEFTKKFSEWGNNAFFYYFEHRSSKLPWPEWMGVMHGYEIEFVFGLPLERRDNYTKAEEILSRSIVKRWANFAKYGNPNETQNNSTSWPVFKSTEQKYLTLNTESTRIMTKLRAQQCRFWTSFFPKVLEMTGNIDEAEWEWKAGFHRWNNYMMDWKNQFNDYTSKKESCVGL

Usually IC50 stands for the concentration that gives 50% inhibition. A word on the EC50: it is the concentration that produces a half-maximal response. A low value points to a more potent agent. Compound `O[C@H](CNCC1CC1)[C@H](Cc1ccccc1)NC1c2ccccc2-c2ccccc21` [Compound 6] yielded an IC50 in series [1] of 210 ± 10 nM. Also, the Emax in series [2] (read-out: 5-HT1A agonist mode E max % [10^-5 M]) stood at 15%. Besides, in series [2] (read-out: 5-HT1A antagonist mode E max %), the Emax came to 16%. Further, the Emax in series [3] (read-out: 5-HT7 agonist mode E max % [10^-5 M]) came to 8%. Also, in series [3] (read-out: 5-HT7 antagonist mode E max %), the Emax worked out at 0%. The EC50 in series [4] was 2420 nM. Besides, the Emax in series [4] (read-out: 5-HT6 agonist mode E max % [10^-5 M]) was found to be 41%. Also, the Emax in series [4] (read-out: 5-HT6 antagonist mode E max %) is 3%. In addition, the “interaction with SERT” value in series [5] is listed as “ruled out interactions”. Moreover, the 50% inhibitory concentration (IC50) in series [6] was 6460 ± 90 nM. Further, the “increase in intracellular RONS” value with SIM-A9 cells (IC50, ½ IC50, ¼ IC50, 1, 4, 24 h) was “no significant increase”. In the series with SIM-A9 cells (conc. = IC50, 24 h), the “intracellular RONS, times lower” value came out at 1.63 fold. For the same compound, in the series on ICR-CD1 mice, the Necropsy entry is “no pathology of internal organs” and the signs of toxicity result is given as “no signs of poisoning occurred; also recorded: no signs of toxicity occurred”. Besides, in the series with ICR-CD1 mice (48 h), the “ALP, plasma” value is listed as 61.2 ± 6.2 U/L; the “ALT, plasma” value is given as 30.0 ± 1.6 U/L; the “AST, plasma” value is recorded as 51.3 ± 7.0 U/L; the “Amylase, plasma” value worked out at 2630 ± 110 U/L. Further, in the series on ICR-CD1 mice (48 h), the “CK, plasma” value was 123 ± 25 U/L; the “Glucose, plasma” value came out at 205 ± 16 mg/dL; the “Urea, plasma” value is 38.6 ± 2.5 mg/dL; the “blood biochemistry vs control” value is “no significant changes; also recorded: lack of significant changes in blood biochemistry”. Besides, in the series with ICR-CD1 mice (liver, kidney, esophagus, stomach, duodenum, pancreas), the histopathological examinations entry was “no tissue damage”.

(Values after paper PMC11796312, “Multifunctional, Fluorene‐Based Modulator of Cholinergic and GABAergic Neurotransmission as a Novel Drug Candidate for Palliative Treatment of Alzheimer's Disease” (Angewandte Chemie (International Ed. in English), 2024).)
